Source: patent publication US20100069254A1, “Cell Culture Model for Demyelination/Remyelination” (priority 2008, published 2010)
“Also recorded” adds a separate entry of the source.

Experiments:
[1] = test system: oligodendrocytes and neurons; assay: MTS metabolic activity assay (CellTiter 96 AQueous One) of demyelinated cell cultures
Protocol: Metabolic activity of cells was then measured by an MTS assay as described in the text.
Monitoring of metabolic activity (CellTiter 96® AQueous One; Promega) is used to identify concentrations that caused a minimum amount of damage to the oligodendrocytes and neurons. In this assay a tetrazolium compound (MTS) and an electron coupling reagent (phenazine ethosulfate) are used for calorimetric detection of metabolic activity. MTS is bioreduced, presumably by NADPH or NADH, into a colored formazan product that is soluble in tissue culture medium and can be detected spectrophotometrically. Absorbance at about […] is proportional to metabolic activity and is commonly used to monitor the number of living cells in culture.

Xenopus tadpoles = settings: 0.1 to 0.2 μg/ml in tadpole bins; cited from earlier work
animals = settings: injection of 2 μl of a 1% solution; cited from earlier work

Row | Compound | effect on cellular metabolism / damage to neural or glial cell bodies (metabolic assay) ([1]; 10 μg/ml, 10 minute exposure) | demyelination in Xenopus tadpoles (Xenopus tadpoles) | cellular damage (metabolic assay) ([1]; relatively low concentrations (0.1%), 10 minutes) | local demyelination in animals (animals)
1 | Oc1c(Cl)cc(Cl)c(Cl)c1Cc1c(O)c(Cl)cc(Cl)c1Cl [hexachlorophene] | without an observable effect on cellular metabolism; also recorded: mild enough to prevent significant damage to the neural or glial cell bodies | cause demyelination |  | 
2 | lysophosphatidylcholine |  |  | significant cellular damage | cause local demyelination
